Patent US10105362B2, “Anti-tumor use of anagrelide and derivatives thereof” (SHANGHAI INSTITUTE OF MATERIA MEDICA, CHINESE ACADEMY OF …, priority 2013, dated 2018)

Assays:
A498 cells [1] = assay: MTT colorimetry, tumor cell growth/viability; type: cell-based, human; conditions: for IC50: A498, MTT, 72 h
Protocol: (§1) Logarithmic growth phase cells were seeded in 96-well culture plate in appropriate density (100 μl in each well). After overnight cultivation, different concentrations of drugs were added and treated for 72 h, while three wells were set for each concentration. After treatment was completed, 20 μl/well of MTT (5 mg/ml in PBS) was added to each well and affected for 3-5 hours, the medium was suctioned out completely and 100 ul/well of DMSO was added, oscillated on decolorization shaker in dark place for 10 minutes until the Blue purple crystals formazan (formazan) was completely dissolved, the OD (Optical Density) value was detected with a microplate reader (detection wavelength: […]; reference wavelength: 650 nM). In blank group, culture medium only added without cells, and in control group, DMSO in the same volume as that for drug was added. Cell viability was calculated=(OD value of experimental group−OD value of control group)/(OD value of control group−OD value of blank group). Tumor cells from different tissue source were selected, and the concentration of Anagrelide was 1 μM and 50 μM, OD value was MTT detected after administrated for 72 hours, and the cell viability was calculated using cell viability=(administered group OD-blank group OD)/(control group OD-blank group OD)*100%, and was mapped by using GraphPadPrism 4 software. IC50 values on this seven cell lines of Anagrelide were detect by MTT method, and all of them are less than 100 nM (Table 2).

Bel7404 cells [2] = assay: MTT colorimetry, tumor cell growth/viability; type: cell-based, human; conditions: 1 μM, 72 hours
Protocol: as §1

FHCC98 cells [3] = assay: MTT colorimetry, tumor cell growth/viability; type: cell-based, human; conditions: 1 μM, 72 hours
Protocol: as §1

H4 cells [4] = assay: MTT colorimetry, tumor cell growth/viability; type: cell-based, human; conditions: 1 μM, 72 hours
Protocol: as §1

HeLa cells [5] = assay: MTT colorimetry, tumor cell growth/viability; type: cell-based, human; conditions: 1 μM, 72 hours
Protocol: as §1

SMMC7721 cells [6] = assay: MTT colorimetry, tumor cell growth/viability; type: cell-based, human; conditions: 1 μM, 72 hours
Protocol: as §1

SW1116 cells [7] = assay: MTT colorimetry, tumor cell growth/viability; type: cell-based, human; conditions: 1 μM, 72 hours
Protocol: as §1

A498 cells [8] = assay: RTCA real-time monitoring of cell growth; type: cell-based, human; conditions: 100 nM, within 72 hours
Protocol: (§2) A real-time monitor from Roche was used to detect growth of cells. […] Logarithmic growth phase cells were digested with trypsin, centrifuged and resuspended, and were seeded at 3.5×10^4 /mL per well in 16-well plate matching to cell supporting real-time monitor, and the compound was dosed after 37° C. overnight incubation. Real-time monitoring was used to automatically detect the status of cell growth, and the cell number was reflected by the size of the resistance formed after cell spreading. The larger the cell index value, the faster the cell growth, and the more the number of cells. To further examine Anagrelide inhibition of cell growth, Hela, H4, FHCC98, SMMC7721, BEL7404, A498, SW1116 were taken for further experiment. Through cell real-time monitoring device, real-time monitoring of cell growth status change within 72 hours after Anagrelide administration was conducted (FIG. 3). 3000 cells/100 uL were plated, cultivated overnight, and 100 nM Anagrelide was added. The growth of cells was detected with real-time monitor.

Bel7404 cells [9] = assay: RTCA real-time monitoring of cell growth; type: cell-based, human; conditions: 100 nM, within 72 hours
Protocol: as §2

FHCC98 cells [10] = assay: RTCA real-time monitoring of cell growth; type: cell-based, human; conditions: 100 nM, within 72 hours
Protocol: as §2

H4 cells [11] = assay: RTCA real-time monitoring of cell growth; type: cell-based, human; conditions: 100 nM, within 72 hours
Protocol: as §2

HeLa cells [12] = assay: RTCA real-time monitoring of cell growth; type: cell-based, human; conditions: 100 nM, within 72 hours
Protocol: as §2

SMMC7721 cells [13] = assay: RTCA real-time monitoring of cell growth; type: cell-based, human; conditions: 100 nM, within 72 hours
Protocol: as §2

SW1116 cells [14] = assay: RTCA real-time monitoring of cell growth; type: cell-based, human; conditions: 100 nM, within 72 hours
Protocol: as §2

[15] = tested on: PARP cleavage in FHCC 98 cells; assay: PARP cleavage by Western Blotting (apoptosis); type: cell-based, human; conditions: 100 nM, different time points
Text: (§3) 1) Vertical electrophoretic separation of proteins: 8%-10% SDS-polyacrylamide (SDA-PAGE) gel electrophoresis separation, 5% stacking gel. The voltage for stacking gel was 80V, separation gel separation voltage for separating gel was 120V, and electrophoresis was stopped when bromophenol blue indicator ran to the bottom; 2) membrane transferring: semi-dry transferring: transmembrane voltage was 10-15V, and the time was adjusted according to the size of the protein; 3) pre-stained with Ponceau to observe transmembrane effect; 4) blocking: It was blocked with 5% skim milk in TBST and oscillated on Decolorization shaker at room temperature for 1 hour; 5) the binding with first antibody: The antibody was diluted at 1: 2000 to 1: 10000 in TBST containing 5% BSA, oscillated on decolorization shaker 1 hour under room temperature for binding, and placed at 4° C. overnight. TBST was used to wash for three times, and 10 minutes for each time. 6) the binding with secondary antibody: The antibody was diluted at 1:5000 to 1:10000 in TBST containing 5% BSA, and oscillated on decolorization shaker 1 hour for binding under room temperature. TBST was used to wash for three times, and 10 minutes for each time. ECL developing kit was used to treat substrate for 2-3 minutes, detected for chemiluminescence, and exposed on X-ray film. […] The PARP cleavage was detected by Western Blotting.

[16] = tested on: PARP cleavage in H4 cells; assay: PARP cleavage by Western Blotting (apoptosis); type: cell-based, human; conditions: 100 nM, different time points
Text: as §3

HeLa cells [17] = assay: Cell migration detection via scratch experiment; type: cell-based, human; conditions: 100 nM, serum-free medium, up to 24 hours
Protocol: The bottom of the six-well plate was uniformly marked with horizontal strips by marker, and then the logarithmic growth phase cells were seeded in the plate by 120×10^4 /mL concentration to make the cells evenly cover the six-well plate, and cells were incubated under 37° C. overnight. Fresh serum-free medium was changed, after the cells were starved for 10 hours, the bottom of six-well plate was scratched perpendicularly to horizontal strips, and washed three times with serum-free medium. After the suspended cells were rinsed, serum-free medium was added and photographed in 0, 2, 6, 12, and 24 hours. Image J was used to calculate the moving distance of the cells. By Scratching assay (HeLa cells were used as an example), the effect of Anagrelide on tumor cell migration was detected.

tumor cells = assay: Growth inhibition of tumor cells (summary statement); type: cell-based; conditions: 10 nM/L
non-sensitive cell lines = assay: Growth inhibition of non-sensitive cell lines (summary statement); type: cell-based; conditions: concentration raised up to 1 mM/L
[18] = animal experiments, Fleming and Buyniski 1979; cited from earlier work

O=C1CN2Cc3c(ccc(Cl)c3Cl)N=C2N1 [Anagrelide, 6,7-dichloro-1,5-dihydro-imidazo [2,1-b] quinazolin-2 (3H)-one]
inhibition of cell growth (A498 cells [1]; 1 μM, 72 hours, MTT, A498): significantly inhibited growth | IC50 (A498 cells [1]): 53 nM | IC50 (A498 cells [1]; Homo sapiens, A498, 72 h): < 100 nM | inhibition of cell growth (Bel7404 cells [2]): significantly inhibited growth | inhibition of cell growth (FHCC98 cells [3]): significantly inhibited growth | inhibition of cell growth (H4 cells [4]): significantly inhibited growth | inhibition of cell growth (HeLa cells [5]): significantly inhibited growth | inhibition of cell growth (SMMC7721 cells [6]): significantly inhibited growth | inhibition of cell growth (SW1116 cells [7]): significantly inhibited growth | cell growth status, real-time monitoring (A498 cells [8]): did not cause the cell apoptosis within 72 hours, but the growth was suppressed | cell growth status, real-time monitoring (Bel7404 cells [9]): did not cause the cell apoptosis within 72 hours, but the growth was suppressed | cell growth status, real-time monitoring (FHCC98 cells [10]): ultimately induced the cell death | cell growth status, real-time monitoring (H4 cells [11]): ultimately induced the cell death | cell growth status, real-time monitoring (HeLa cells [12]): ultimately induced the cell death | cell growth status, real-time monitoring (SMMC7721 cells [13]): ultimately induced the cell death | cell growth status, real-time monitoring (SW1116 cells [14]): did not cause the cell apoptosis within 72 hours, but the growth was suppressed | PARP cleavage [15]: PARP cleavage was gradually increased with time | PARP cleavage [16]: PARP cleavage was gradually increased with time | healing speed of scratch (cell migration) (HeLa cells [17]): significantly inhibit the healing speed of scratch | growth inhibition of tumor cells (tumor cells): obviously inhibit the growth of tumor cells | growth inhibition of non-sensitive cell lines (non-sensitive cell lines): does not have any growth inhibition effect | anti-thrombotic function [18]: significant anti-thrombotic function
